Laboratory results: ChEMBL document CHEMBL4024786, “In Silico Fragment-Based Design Identifies Subfamily B1 Metallo-β-lactamase Inhibitors” (J Med Chem, 2018)
Calls of active or inactive are those of the source. The calls are words filed in the database; no cut-off is given here.

Tests used:
[1] = Inhibition of recombinant bacterial VIM-2 expressed in Escherichia coli BL21 (DE3) cells using FC4 as substrate preincubated for 10 mins prior to substrate addition in presence of Triton X-100 by fluorescence-based assay; design: species or system Bacteria
[2] = Inhibition of recombinant bacterial NDM-1 expressed in Escherichia coli BL21 (DE3) cells using imipenem as substrate in presence of Triton X-100 by spectrophotometric analysis; design: species or system Bacteria
[3] = Inhibition of recombinant bacterial IMP-1 expressed in Escherichia coli BL21 (DE3) cells using FC4 as substrate preincubated for 10 mins prior to substrate addition in presence of Triton X-100 by fluorescence-based assay; design: species or system Bacteria
[4] = Binding affinity to recombinant bacterial VIM-2 expressed in Escherichia coli BL21 (DE3) cells by NMR method; design: species or system Bacteria
[5] = system: Pseudomonas aeruginosa PAO1; test: Inhibition of recombinant Psedomonas aeruginosa PAO1 N-terminal His-tagged AmpC expressed in Escherichia coli BL21 (DE3) cells using FC5 as substrate preincubated up to 360 mins prior to substrate addition in presence or absence of Triton X-100 by fluorescence-based assay
[6] = molecular target: Beta-lactamase TEM (Bacteria, UniProt P62593); test: Inhibition of recombinant N-terminal His-tagged bacterial Escherichia coli TEM-1 (24 to 286 residues) expressed in Escherichia coli BL21 (DE3) cells using FC5 as substrate preincubated up to 360 mins prior to substrate addition by fluorescence-based assay
Beta-lactamase TEM, sequence (P62593 whole entry, the tested form may be a part): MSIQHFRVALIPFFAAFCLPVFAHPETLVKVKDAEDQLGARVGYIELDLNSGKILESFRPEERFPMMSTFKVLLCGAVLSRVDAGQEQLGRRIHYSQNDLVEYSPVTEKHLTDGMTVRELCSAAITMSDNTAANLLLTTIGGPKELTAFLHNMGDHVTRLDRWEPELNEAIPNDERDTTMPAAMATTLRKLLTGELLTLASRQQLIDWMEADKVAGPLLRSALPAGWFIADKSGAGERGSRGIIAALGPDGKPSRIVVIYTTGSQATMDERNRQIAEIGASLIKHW

[7] = molecular target: Beta-lactamase OXA-10 (Pseudomonas aeruginosa, UniProt P14489); test: Inhibition of recombinant Pseudomonas aeruginosa OXA-10 expressed in Escherichia coli BL21 (DE3) cells using FC5 as substrate preincubated up to 360 mins prior to substrate addition by fluorescence-based assay
Beta-lactamase OXA-10, sequence (P14489 whole entry): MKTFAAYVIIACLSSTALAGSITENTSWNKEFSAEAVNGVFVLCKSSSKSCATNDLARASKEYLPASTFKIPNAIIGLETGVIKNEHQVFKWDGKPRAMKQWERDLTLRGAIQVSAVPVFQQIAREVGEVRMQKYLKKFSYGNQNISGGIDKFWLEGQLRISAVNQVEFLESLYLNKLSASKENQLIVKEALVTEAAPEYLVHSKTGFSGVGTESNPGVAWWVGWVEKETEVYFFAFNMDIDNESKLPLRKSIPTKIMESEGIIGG

[8] = system: Escherichia coli str. K-12 substr. MG1655; test: Inhibition of NDM-1 in Escherichia coli MG1655 assessed as potentiation of meropenem induced antibacterial activity by measuring meropenem MIC at 100 ug/ml after 18 to 24 hrs by broth microdilution method (reference value: >128 ug/ml)
[9] = molecular target: Metallo-beta-lactamase type 2 (Klebsiella pneumoniae) (UniProt C7C422); test: Inhibition of NDM-1 in Klebsiella pneumoniae ATCC 5055 assessed as potentiation of meropenem induced antibacterial activity by measuring meropenem MIC at 100 ug/ml after 18 to 24 hrs by broth microdilution method (reference value: >128 ug/ml)
Metallo-beta-lactamase type 2 (Klebsiella pneumoniae), sequence (C7C422 whole entry): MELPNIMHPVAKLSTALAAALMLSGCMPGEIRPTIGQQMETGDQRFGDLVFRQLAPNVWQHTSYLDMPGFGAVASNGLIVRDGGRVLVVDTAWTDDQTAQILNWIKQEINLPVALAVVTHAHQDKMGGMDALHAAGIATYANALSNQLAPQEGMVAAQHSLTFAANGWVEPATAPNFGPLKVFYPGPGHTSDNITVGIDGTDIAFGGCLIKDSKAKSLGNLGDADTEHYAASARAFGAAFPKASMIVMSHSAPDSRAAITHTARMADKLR

[10] = molecular target: T1, 5' exonuclease Apollo (Homo sapiens, UniProt Q9H816); test: Inhibition of human DCLRE1B
T1 sequence (Q9H816 whole entry): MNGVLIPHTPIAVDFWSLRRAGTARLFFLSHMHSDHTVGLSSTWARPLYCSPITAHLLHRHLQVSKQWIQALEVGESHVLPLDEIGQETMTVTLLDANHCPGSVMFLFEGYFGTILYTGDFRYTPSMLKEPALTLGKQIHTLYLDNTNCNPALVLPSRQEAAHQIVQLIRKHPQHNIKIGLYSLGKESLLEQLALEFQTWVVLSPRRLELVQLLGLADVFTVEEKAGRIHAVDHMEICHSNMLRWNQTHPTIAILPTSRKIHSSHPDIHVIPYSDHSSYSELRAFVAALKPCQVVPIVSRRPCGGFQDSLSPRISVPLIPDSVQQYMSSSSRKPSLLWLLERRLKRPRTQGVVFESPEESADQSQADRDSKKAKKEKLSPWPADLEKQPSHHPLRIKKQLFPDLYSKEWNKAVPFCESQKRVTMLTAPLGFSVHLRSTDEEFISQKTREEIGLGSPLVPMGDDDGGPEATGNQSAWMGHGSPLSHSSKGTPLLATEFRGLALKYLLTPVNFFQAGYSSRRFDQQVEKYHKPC

[11] = Aqueous solubility of the compound in phosphate buffer at pH 7.0; assay type: physicochemical
[12] = system: Liver; test: Drug metabolism in human liver microsomes; assay type: ADME, microsome
[13] = Inhibition of recombinant bacterial Bc2 expressed in Escherichia coli BL21 (DE3) cells using FC5 as substrate preincubated for 10 mins prior to substrate addition by fluorescence-based assay; design: species or system Bacteria
[14] = Inhibition of recombinant bacterial SPM-1 expressed in Escherichia coli BL21 (DE3) cells using FC5 as substrate preincubated for 10 mins prior to substrate addition by fluorescence-based assay; design: species or system Bacteria
[15] = system: Bacteria; test: Binding affinity to recombinant bacterial VIM-2 expressed in Escherichia coli BL21 (DE3) cells at 50 uM in presence of 4-(2,3-dichlorophenyl)-2-(sulfonylmethyl)benzoic acid by NMR method

| SMILES | IC50 [1] [nM] | IC50 [2] [nM] | IC50 [3] [nM] | MIC [8] [µg/mL] | MIC [9] [µg/mL] | further results |
| --- | --- | --- | --- | --- | --- | --- |
| O=C(O)c1ccc(-c2cccc(Cl)c2Cl)cc1CS | 40 | 1160 | 370 |  |  | Kd [4]: < 1000 nM; inhibition [5]: Active; IC50 [6]: 5500 nM; IC50 [7]: 37300 nM |
| O=C(O)c1ccc(-c2ccco2)cc1CS | 360 | 10200 | 390 | 32 | 64 |  |
| CCOc1cccc(-c2ccc(C(=O)O)c(CS)c2)c1 | 180 | 7590 | 320 | 64 | 16 |  |
| O=C(O)c1ccc(-c2ccsc2)cc1CS | 170 | 6780 | 180 | 16 | 8 |  |
| O=C(O)c1ccc(-c2ccc3ccccc3c2)cc1CS | 70 | 2420 | 220 | 32 | 32 |  |
| O=C(O)c1ccc(-c2ccccc2)cc1CS | 230 | 5590 | 230 | 16 | 32 | IC50 [10]: 149000 nM; solubility [11]: Soluble; Drug metabolism [12]: Metabolite_Detected |
| O=C(O)c1ccc(-c2cccc(F)c2)cc1CS | 200 | 590 | 390 |  |  | IC50 [13]: 780 to 7800 nM; IC50 [14]: 780 to 7800 nM; IC50 [10]: 185000 nM |
| O=C(O)c1ccc(-c2cc(C(F)(F)F)cc(C(F)(F)F)c2)cc1CS | 450 | 44000 | 1720 | > 128 | > 128 | Activity [15]: inactive |
| O=C(O)c1ccc(-c2ccccc2C(F)(F)F)cc1CS | 150 | 8820 | 480 |  |  |  |
| O=C(O)Cc1ccccc1S | > 100000 |  |  |  |  |  |
| O=C(O)c1ccc(-c2ccccc2Cl)cc1CS | 180 | 2850 | 300 |  |  | IC50 [13]: 780 to 7800 nM; IC50 [14]: 780 to 7800 nM; inhibition [5]: Active |
| O=C(O)c1ccc(-c2ccc(Cl)cc2)cc1CS | 100 | 420 | 60 |  |  | IC50 [13]: 780 to 7800 nM; IC50 [14]: 780 to 7800 nM |
| CCc1ccc(-c2ccc(C(=O)O)c(CS)c2)cc1 | 100 | 570 | 50 | 32 | 64 |  |
| O=C1SCc2cc(-c3ccccc3)ccc21 | > 100000 |  |  |  |  |  |
| O=C(O)c1ccc(Br)cc1CS | 170 | > 100000 | 800 | 32 | 64 |  |
| O=C(O)c1ccc(-c2cccc(Cl)c2)cc1CS | 70 | 310 | 140 |  |  | IC50 [13]: 780 to 7800 nM; IC50 [14]: 780 to 7800 nM; IC50 [10]: 268000 nM |
| O=C(O)c1ccc(-c2ccc(F)cc2)cc1CS | 230 | 710 | 300 |  |  | IC50 [13]: 780 to 7800 nM; IC50 [14]: 780 to 7800 nM; IC50 [6]: 32800 nM |
